Measured values reported in paper PMC5358776, “Insight into the mechanism of action of temporin-SHa, a new broad-spectrum antiparasitic and antibacterial agent” (PLoS ONE, 2017).
Where two headings read alike, the source gives them in different places. Where no end group is shown, it is not given here.

How the values were obtained:
[1] = tested on: L. infantum promastigotes; experiment: DNA fragmentation, TUNEL assay; format: cell-based, Leishmania infantum; settings: 50 μM, 48 h
Experimental: (§1) Mid-log phase L. infantum promastigotes were synchronized at the G1/S border by treating with 10 mM hydroxyurea for 24 h at 26°C [81]. […] Then 400 μl of different concentrations of peptide (12.5, 25 and 50 μM, final concentrations) were added to 1.6 ml of the cell suspension. After 48 h incubation, samples were split into two volumes (2 x 1 ml) to analyze the cell cycle and DNA fragmentation. For cell cycle analysis, the first sample (1 ml) was centrifuged (1,000 x g, 10 min) and 100 μl of HBSS was added to the pellet. Then, 900 μl of cold 70% ethanol was gently added drop-wise for cell fixation. After an overnight incubation at -20°C, cells were washed (16,000 x g, 10 min, 4°C) with HBSS and resuspended in 1 ml of HBSS containing 100 μg of RNase A (Sigma-Aldrich) and 5 μg of propidium iodide. After 30 min of incubation at 37°C, samples were passed 5 times through a sterile plastic syringe fitted with a 27 gauge needle and analyzed by flow cytometry (FACSCalibur). For DNA fragmentation analysis, a TUNEL assay was performed on the second 1 ml sample. […] DNA strand breaks were detected by the addition of biotinylated nucleotides to the free 3′-hydroxyl ends of the DNA fragments using TdT (terminal deoxynucleotidyl transferase) and tagged with a streptavidin-FITC conjugate for subsequent detection by flow cytometry. […]

[2] = tested on: L. infantum promastigotes; experiment: Cell cycle analysis, sub-G1 phase; format: cell-based, Leishmania infantum; settings: 50 μM, 48 h
Experimental: as §1

[3] = tested on: E. faecalis ATCC 29212
Experimental: (§2) Listeria ivanovii Li4pVS2 (kindly provided by Jean-Marc Berjeaud, Université de Poitiers, France), and Streptococcus pyogenes ATCC 19615 (ATCC) were cultured in brain heart infusion (BHI, Sigma-Aldrich) medium under the same conditions.
(§3) Activity against bacteria and yeasts was assessed with a liquid growth inhibition assay performed in 96-well microtitration plates, according to a previously described protocol [14], using mid-logarithmic phase cultures diluted in Mueller-Hinton (MH, Dominique Dutscher) broth (LB broth for E. faecalis strain and YPD medium for yeasts/fungi) to an A630 value of 0.01 (10^6 cfu/ml) and 2-fold serial dilutions of synthetic temporin (200–1 μM, final concentrations). The minimal inhibitory concentration (MIC) was determined as the mean value of three independent experiments, each performed in triplicate with negative (H2O) and positive (0.7% formaldehyde) controls.

[4] = tested on: Human HepG2; settings: MTT, 72 h, 37°C, 50–600 μM; mean of 3 independent experiments in triplicate
[5] = tested on: L. ivanovii
Experimental: as §2, §3

[6] = tested on: A. baumannii ATCC 19606
Experimental: as §3

[7] = tested on: L. amazonensis promastigotes
Experimental: (§4) L. infantum axenic amastigotes were differentiated from promastigotes in MAA medium (supplemented with 20% FCS) and were grown at 37°C in 5% CO2 [23].
(§5) Antiparasitic activity was evaluated against trypanosomatids, such as Leishmania and Trypanosoma. Antileishmanial activity was determined either by a luminescence-based assay (L. infantum, L. major and L. braziliensis) or by cell counting (FACSCalibur flow cytometer, Becton-Dickinson Biosciences, Woburn, MA, USA) after staining with propidium iodide (L. tropica and L. amazonensis), as previously described [23], using promastigotes or axenic amastigotes (1.25 x 10^6 parasites/ml) in mid-log phase and 5-fold serial dilutions of synthetic temporin (50–3.1 μM, final concentrations). […] The half maximal inhibitory concentration (IC50) value was determined with GraphPad Prism 6.0 software (GraphPad Software, La Jolla, CA, USA) using a sigmoidal dose response (variable slope) curve fitting equation. The results are expressed as the means of three independent experiments performed in triplicate (luminescence-based assays) or in duplicate (cell counting-based assays).

[8] = tested on: C. parapsilosis ATCC 22019
Experimental: (§6) Candida albicans ATCC 90028, Candida parapsilosis ATCC 22019 (ATCC), and Saccharomyces cerevisiae (laboratory collection) were cultured in yeast peptone dextrose (YPD, Sigma-Aldrich) medium at 30°C.
(§7) The minimal inhibitory concentration (MIC) was determined as the mean value of three independent experiments, each performed in triplicate with negative (H2O) and positive (0.7% formaldehyde) controls.

[9] = tested on: Yeasts/fungi; settings: for MICGM (geometric mean of the MIC values): 3 yeast/fungal strains of Table 3
[10] = tested on: T. brucei gambiense
Experimental: (§8) Antiparasitic activity was evaluated against trypanosomatids, such as Leishmania and Trypanosoma. Antileishmanial activity was determined either by a luminescence-based assay (L. infantum, L. major and L. braziliensis) or by cell counting (FACSCalibur flow cytometer, Becton-Dickinson Biosciences, Woburn, MA, USA) after staining with propidium iodide (L. tropica and L. amazonensis), as previously described [23], using promastigotes or axenic amastigotes (1.25 x 10^6 parasites/ml) in mid-log phase and 5-fold serial dilutions of synthetic temporin (50–3.1 μM, final concentrations). Antitrypanosomal activity against T. brucei gambiense and T. cruzi was assessed by cell counting, similar to the L. tropica and L. amazonensis analysis, after incubation of the parasites (96 h for T. brucei gambiense and 120 h for T. cruzi) with the synthetic temporin, as previously described [23]. The half maximal inhibitory concentration (IC50) value was determined with GraphPad Prism 6.0 software (GraphPad Software, La Jolla, CA, USA) using a sigmoidal dose response (variable slope) curve fitting equation. The results are expressed as the means of three independent experiments performed in triplicate (luminescence-based assays) or in duplicate (cell counting-based assays).

[11] = tested on: Human THP-1-derived macrophages; experiment: Cytotoxicity, Trypan blue staining; settings: 1–100 μM, mean of 3 independent experiments, six replicates
Experimental: (§9) Hemolytic assays were also performed using erythrocytes obtained from fresh blood samples of Wistar male rats (Charles River Laboratories, France). The hemolytic activity was measured by incubating the peptide (1–200 μM, final concentrations) with erythrocytes (2 x 10^7 cells) in PBS (100 μl) for 1 h at 37°C, as previously described [23]. A parallel incubation in the presence of 0.1% (v/v) Triton-X100 was carried out to determine the absorbance associated with 100% hemolysis. […] For THP-1-derived macrophages, viability was determined by Trypan blue staining after incubation with peptide (1–100 μM, final concentrations). LC50 (average concentration of the peptide producing 50% cell lysis) and IC50 values were determined with GraphPad Prism 6.0 software and correspond to the mean obtained from three independent experiments carried out with three (erythrocytes, THP-1 monocytes, HepG2 and HFF cells) or six replicates (THP-1-derived macrophages).
(§10) IC50 or LC50 values were determined for the different human cells mentioned above in the cytotoxicity assays.

[12] = tested on: S. pyogenes ATCC 19615
Experimental: as §2, §3

[13] = tested on: Gram-negative and Gram-positive bacteria and yeasts/fungi; experiment: MIC, whole panel of strains; format: cell-based; settings: all the tested bacteria
[14] = tested on: S. aureus ATCC BAA-44
[15] = tested on: T. cruzi epimastigotes
Experimental: as §8

[16] = tested on: L. infantum (antimony resistant) promastigotes; settings: antimony-resistant parasites
Experimental: as §8

[17] = tested on: K. pneumoniae ATCC 13883
Experimental: as §3

[18] = tested on: L. infantum (axenic) amastigotes
Experimental: as §4, §5

[19] = tested on: L. infantum (intramacrophagic) amastigotes in THP-1-derived macrophages
Experimental: Leishmania infantum (strain MHOM/MA/67/ITMAP-263), Leishmania major (strain MHOM/SU/73/5-ASKH), Leishmania tropica (strain MHOM/SU/74/SAFK27), Leishmania amazonensis (strain MHOM/BR/73/M2269), and Leishmania braziliensis (strain MHOM/BR/75/M2904) promastigotes (kindly provided by Francine Pratlong, Centre National de Référence des Leishmania, Montpellier, France) were cultured at 26°C in SDM-79 medium supplemented with 10% fetal calf serum (FCS, Gibco) [23]. […] L. infantum-infected human macrophages were obtained from human THP-1 monocytes, as previously described [23, 78].
Intramacrophagic leishmanicidal activity of the peptides was assessed by incubating L. infantum-infected human macrophages with 2-fold serial dilutions of peptide (50–2.5 μM, final concentrations) for 4 days, as previously described [23]. THP-1-derived macrophages were infected with promastigotes from late log phase at a density of 5 x 10^5 cells/well (ratio 10:1) in RPMI medium for 24 h at 37°C with 5% CO2. […] The results are expressed as the means of two experiments performed with six replicates.

[20] = tested on: Human fibroblasts (HFF); settings: 72 h
[21] = tested on: Human erythrocytes; settings: 1 h
Experimental: as §9, §10

[22] = tested on: S. aureus ATCC 43300; settings: strain resistant to methicillin and oxacillin; MH broth, 10^6 cfu/ml; mean of 3 independent experiments in triplicate
Experimental: as §2, §3

[23] = tested on: L. major promastigotes
Experimental: as §4, §5

[24] = tested on: Rat erythrocytes; settings: 1 h
Experimental: as §9, §10

[25] = tested on: Gram-negative bacteria; settings: 6 Gram-negative strains of Table 3
[26] = tested on: E. coli ML-35p; settings: MH broth, 10^6 cfu/ml; mean of 3 independent experiments in triplicate
Experimental: as §2, §3

[27] = tested on: Gram-positive bacteria; settings: 7 Gram-positive strains of Table 3
[28] = tested on: L. braziliensis promastigotes
Experimental: as §4, §5

[29] = tested on: S. aureus ATCC 25923
Experimental: as §3

[30] = tested on: S. enterica (serotype Enteritidis)
Experimental: as §3

[31] = tested on: P. aeruginosa ATCC 27853
Experimental: as §2, §3

[32] = tested on: E. coli ATCC 25922
Experimental: as §2, §3

[33] = tested on: C. albicans ATCC 90028
Experimental: as §6, §7

[34] = tested on: Human THP-1 monocytes; settings: 72 h
[35] = tested on: promastigotes of several species of Leishmania
Experimental: as §8

[36] = tested on: S. aureus ST1065
Experimental: as §3

[37] = tested on: S. cerevisiae
Experimental: as §6, §7

[38] = tested on: Human erythrocytes; experiment: Hemolytic assay; settings: 1 h, 37°C, PBS, 2 x 10^7 cells; mean of 3 independent experiments in triplicate
Experimental: as §9, §10

[39] = tested on: E. coli ML-35p; experiment: Time-kill assay; format: cell-based, Escherichia coli; settings: 120-min exposure, 12 μM, PBS, 10^6 cfu/ml
Experimental: Time-kill assays were performed on bacteria and Leishmania infantum promastigotes. For bacteria (E. coli ML-35p and S. aureus ST1065, 10^6 cfu/ml), assays were performed as previously described, with final temporin concentrations of 6 and 12 μM. For parasite time-kill assays, Leishmania infantum promastigotes harvested in exponential phase were washed twice (1,000 x g, 10 min) with Hank's balanced salt solution (HBSS) supplemented with 20 mM glucose and then suspended in the same buffer to a density of 2.5 x 10^6 cells/ml. This suspension (800 μl) was incubated with 200 μl of a 5X temporin solution, and parasitic death was evaluated at different times by counting parasites (FACSCalibur) after staining with 1 μg/ml propidium iodide (Molecular Probes). Negative controls were assayed without peptides. Three experiments were carried out in triplicate for bacteria or in duplicate for parasites.

[40] = tested on: L. infantum promastigotes; settings: 3 μM, at 180 min, HBSS
[41] = tested on: L. infantum promastigotes
Experimental: as §4, §5

[42] = MH broth, 10^6 cfu/ml, mean of 3 independent experiments in triplicate
[43] = YPD medium, mean of 3 independent experiments in triplicate
[44] = mean of 3 independent experiments in triplicate

Molecule: CCCCCCCCCCCCCCCCOP(=O)([O-])OCC[N+](C)(C)C [Miltefosine, hexadecylphosphocholine]
- DNA fragmentation (FITC-positive cells) [1]: approximately 65%
- Sub-G1 phase (% of cells) [2]: 29.1 % of cells
- Sub-G1 phase (% of cells) ([2]; listed as miltefosine): 29 % of cells

Molecule: FLKGIVGMLGKLF-NH2 [[K^3]SHa, [K^3]temporin-SHa]
- MIC ([3]; ATCC 29212): 6 µM
- IC50 [4]: 358 µM
- MIC [5]: 3 µM
- MIC ([6]; ATCC 19606): 3 µM
- IC50 ([7]; promastigotes, 96 h): 8 µM
- MIC ([8]; ATCC 22019, 96 h): 25 µM
- MICGM (geometric mean of the MIC values) [9]: 7.7 µM
- MIC (range over strains) ([9]; yeasts/fungi): 3 to 25 µM
- IC50 ([10]; gambiense, 96 h): 16 µM
- LC50 [11]: 55 µM
- MIC ([12]; ATCC 19615): 1 µM
- MIC (range over strains) [13]: 1 to 6 µM
- MIC ([14]; ATCC BAA-44): 3 µM
- IC50 ([15]; epimastigotes, 120 h): 10 µM
- IC50 [16]: 9 µM
- MIC ([17]; ATCC 13883): 3 µM
- IC50 ([18]; axenic) amastigotes, 96 h): 20 µM
- IC50 ([19]; intramacrophagic) amastigotes in THP-1-derived macrophages, 24 h): 5 µM
- IC50 [20]: > 100 µM
- LC50 [21]: 50 µM
- MIC [22]: 3 µM
- IC50 ([23]; promastigotes, 96 h): 10 µM
- LC50 [24]: 26 µM
- MICGM (geometric mean of the MIC values) [25]: 3.8 µM
- MIC [26]: 3 µM
- MICGM (geometric mean of the MIC values) [27]: 2.8 µM
- IC50 ([28]; 96 h): 5 µM
- MIC ([29]; ATCC 25923): 3 µM
- MIC ([30]; serotype Enteritidis): 6 µM
- MIC ([31]; ATCC 27853): 6 µM
- MIC ([32]; ATCC 25922): 3 µM
- MIC ([33]; ATCC 90028, 96 h): 6 µM
- IC50 [34]: 48 µM
- IC50 ([35]; 96 h): 5 to 10 µM
- MIC ([36]; ST1065): 3 µM
- MIC ([37]; 96 h): 3 µM

Molecule: FLSGIVGMLGKLF-NH2 [SHa, temporin-SHa]
- MIC ([3]; LB broth, 10^6 cfu/ml, mean of 3 independent experiments in triplicate): 12 µM
- IC50 [4]: 560 µM
- MIC [5, 42]: 6 µM
- MIC [6, 42]: 6 µM
- IC50 ([7]; cell counting, mean of 3 independent experiments in duplicate): 13 µM
- MIC [8, 43]: 100 µM
- MICGM (geometric mean of the MIC values) [9]: 31.1 µM
- IC50 ([10]; 96 h incubation, cell counting, mean of 3 independent experiments in duplicate): 14 µM
- LC50 [11]: 60 µM
- MIC [12, 42]: 6 µM
- MIC ([14]; multidrug-resistant strain, MH broth, 10^6 cfu/ml, mean of 3 independent experiments in triplicate): 6 µM
- IC50 ([15]; 120 h incubation, cell counting, mean of 3 independent experiments in duplicate): 17 µM
- IC50 [16]: 14 µM
- MIC [17, 42]: 12 µM
- LC50 [38]: 25 µM
- IC50 ([18]; axenic amastigotes): 20 µM
- killing [39]: approximately 93%
- IC50 ([19]; infected THP-1-derived macrophages, 4 days, mean of 2 experiments with six replicates): 9 µM
- IC50 ([20]; MTT, 37°C, 1–100 μM, mean of 3 independent experiments in triplicate): > 100 µM
- killing [40]: 38%
- MIC [22]: 6 µM
- IC50 [23, 44]: 13 µM
- LC50 ([24]; 37°C, PBS, 2 x 10^7 cells, mean of 3 independent experiments in triplicate): 25 µM
- MICGM (geometric mean of the MIC values) [25]: 14.4 µM
- MIC [26]: 10 µM
- MICGM (geometric mean of the MIC values) [27]: 6 µM
- IC50 [28, 44]: 7 µM
- IC50 ([41]; medium with serum, mean of 3 independent experiments in triplicate): 18 µM
- IC50 ([41]; serum-free medium (values in parentheses)): 8 µM
- MIC [29, 42]: 3 µM
- MIC [30, 42]: 25 µM
- MIC [31, 42]: 50 µM
- MIC [32, 42]: 10 µM
- MIC [33, 43]: 25 µM
- IC50 ([34]; MTT, 37°C, 1–60 μM, mean of 3 independent experiments in triplicate): > 60 µM
- IC50 ([35]; read-out: IC50 (range over Leishmania species), promastigotes of L. infantum, L. major, L. amazonensis, L. braziliensis): 7 to 18 µM
- MIC [36, 42]: 6 µM
- MIC [37, 43]: 12 µM
